pIC50: −log10 of the molar value.
How the values were obtained:
[1] = biological target: Jarid1B (Homo sapiens (Human), UniProt Q9UGL1); experiment: Jarid1B in vitro enzyme inhibition assay (TR-FRET); assay type: biochemical
Description: This assay determines the ability of a test compound to inhibit Jarid1A, Jarid1B, JMJD2C, and JMJD2A demethylase activity.
The ability of test compounds to inhibit the activity of Jarid1B was determined in 384-well plate format under the following reaction conditions: 0.8 nM Jarid1B, 300 nM H3K4me3-biotin labeled peptide (Anaspec cat #64357), 2 μM alpha-ketoglutaric acid in assay buffer of 50 mM HEPES, pH7.3, 0.005% Brij35, 0.5 mM TCEP, 0.2 mg/ml BSA, 50 μM sodium L-ascorbate, and 2 μM ammonium iron(II) sulfate. Reaction product was determined quantitatively by TR-FRET after the addition of detection reagent Phycolink Streptavidin-allophycocyanin (Prozyme) and Europium-anti-mono- or di-methylated histone H3 lysine 4 (H3K4me1-2) antibody (PerkinElmer) in the presence of 5 mM EDTA in LANCE detection buffer (PerkinElmer) at a final concentration of 25 nM and 1 nM, respectively.
The assay reaction was initiated by the following: 2 μl of the mixture of 900 nM H3K4me3-biotin labeled peptide and 6 μM alpha-ketoglutaric acid with 2 μl of 11-point serial diluted inhibitor in 3% DMSO was added to each well of the plate, followed by the addition of 2 μl of 2.4 nM Jarid1B to initiate the reaction. The reaction mixture was incubated at room temperature for 30 minutes, and terminated by the addition of 6 μl of 5 mM EDTA in LANCE detection buffer containing 50 nM Phycolink Streptavidin-allophycocyanin and 2 nM Europium-anti-H3K4me1-2 antibody. Plates were read by EnVisionMultilabel Reader in TR-FRET mode (excitation at 320 nm, emission at 615 nm and 665 nm) after 1 hour incubation at room temperature. A ratio was calculated (665/615) for each well and fitted to determine inhibition constant (IC50).

[2] = biological target: JMJD2A (Homo sapiens (Human), UniProt O75164); experiment: JMJD2A in vitro enzyme inhibition assay (TR-FRET); assay type: biochemical
Description: This assay determines the ability of a test compound to inhibit Jarid1A, Jarid1B, JMJD2C, and JMJD2A demethylase activity. […] Baculovirus expressed JMJD2A (GenBank Accession #NM_014663, AA 1-350) was purchased from BPS Bioscience (Cat#50123).
The ability of test compounds to inhibit the activity of JMJD2A was determined in 384-well plate format under the following reaction conditions: 2 nM JMJD2A, 300 nM H3K9me3-biotin labeled peptide (Anaspec cat #64360), 2 μM alpha-ketoglutaric acid in assay buffer of 50 mM HEPES, pH7.3, 0.005% Brij35, 0.5 mM TCEP, 0.2 mg/ml BSA, 50 μM sodium L-ascorbate, and 2 μM ammonium iron(II) sulfate. Reaction product was determined quantitatively by TR-FRET after the addition of detection reagent Phycolink Streptavidin-allophycocyanin (Prozyme) and Europium-anti-di-methylated histone H3 lysine 9 (H3K9me2) antibody (PerkinElmer) in the presence of 5 mM EDTA in LANCE detection buffer (PerkinElmer) at a final concentration of 50 nM and 1 nM, respectively.
The assay reaction was initiated by the following: 2 μl of the mixture of 900 nM H3K9me3-biotin labeled peptide and 6 μM alpha-ketoglutaric acid with 2 μl of 11-point serial diluted inhibitor in 3% DMSO were added to each well of plate, followed by the addition of 2 μl of 6 nM JMJD2A to initiate the reaction. The reaction mixture was incubated at room temperature for 30 minutes, and terminated by the addition of 6 μl of 5 mM EDTA in LANCE detection buffer containing 100 nM Phycolink Streptavidin-allophycocyanin and 2 nM Europium-anti-H3K9me2 antibody. Plates were read by EnVisionMultilabel Reader in TR-FRET mode (excitation at 320 nm, emission at 615 nm and 665 nm) after 1 hour incubation at room temperature. A ratio was calculated (665/615) for each well and fitted to determine inhibition constant (IC50).

[3] = biological target: Jarid1A (Homo sapiens (Human), UniProt P29375); experiment: Jarid1A in vitro enzyme inhibition assay (TR-FRET); assay type: biochemical
Description: The enzymatic assay of Jarid1A activity is based upon Time Resolved-Fluorescence Resonance Energy Transfer (TR-FRET) detection.

[4] = biological target: FBXL10 (Homo sapiens (Human), UniProt Q8NHM5); experiment: FBXL10 in vitro enzyme inhibition assay (AlphaScreen); assay type: biochemical
In short: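 AlphaScreen read-out of H3K36me1 product, detected with anti-H3K36me1 antibody plus streptavidin donor and Protein A acceptor beads (final 10 μg/ml) in 50 mM HEPES pH 7.3, 10 mM NaCl, 0.005% Brij35, 5 mM EDTA, 2 mg/ml BSA. Beads incubated 2 h to overnight at room temperature; IC50 derived from AlphaScreen signal.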

[5] = test system: KDM5A and KDM5B; experiment: In vitro cell-based assay: tri-methyl H3K4 immuno-blotting in ZR-75-1 cells (cellular inhibition of KDM5A/B); conditions: ZR-75-1 breast cancer cells, 72 hours, tri-methylated H3K4 level; read-out: IC50 ZR-75-1 cell-MOA
Description: This quantitative immuno-blotting assay measures the amount tri-methylated histone H3 at amino acid Lysine number 4, a specific substrate and product of the direct enzymatic activity of the histone demethylases KDM5A and KDM5B from extracts of the ZR-75-1 breast cancer cell line.
This assay is a fluorometric immunoassay for the quantification of tri-methyl H3K4 extracted from cells treated with test compound and is used as a measure of the cellular inhibition of KDM5A/B.
Extracts were prepared containing all of the cellular histone material using detergent based lysis and sonication methods. These lysates were subsequently normalized for total protein content using a colorimetric bicinchonic acid assay (MicroBCA Pierce/Thermo Scientific). Normalized cell extracts were then subjected to typical immuno-blotting procedures using NuPage reagents (Life Technologies). Electrophoretically separated histones were then transferred and immobilized using polyvinylidene difluoride membrane (Immobilon-FL Millipore). The amount of tri-methylated lysine 4 of histone H3 was detected using an antibody specific to the tri-methylated state (Cell Signaling Technologies) and quantified on an infrared imager using a densitometry software package (Odyssey CLx, Image Studio, Li-Cor). This background subtracted densitometry value was reported as a ration of the GAPDH amount for that sample and then calculated as a percent of the DMSO treated sample. The software package XL-fit (IDBS) was then used to calculate a relative IC50 value for the dilution series of a given test compound according to the equation: fit=(D+((Vmax*(x^n))/((x^n)+(Km^n)))).

[6] = biological target: JMJD2C (Homo sapiens (Human), UniProt Q9H3R0); experiment: JMJD2C in vitro enzyme inhibition assay (TR-FRET); assay type: biochemical
Sequence of JMJD2C (Q9H3R0 2-372): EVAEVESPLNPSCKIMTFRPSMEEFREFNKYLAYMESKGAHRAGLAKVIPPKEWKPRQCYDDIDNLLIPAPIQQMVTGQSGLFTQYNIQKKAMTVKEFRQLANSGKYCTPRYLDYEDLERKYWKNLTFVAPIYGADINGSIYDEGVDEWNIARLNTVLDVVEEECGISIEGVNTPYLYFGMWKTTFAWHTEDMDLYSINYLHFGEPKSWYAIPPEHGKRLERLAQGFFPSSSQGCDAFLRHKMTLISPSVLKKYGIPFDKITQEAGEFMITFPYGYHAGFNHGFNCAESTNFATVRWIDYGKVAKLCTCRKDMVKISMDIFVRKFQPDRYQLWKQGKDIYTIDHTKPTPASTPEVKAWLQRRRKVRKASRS
Description: This assay determines the ability of a test compound to inhibit Jarid1A, Jarid1B, JMJD2C, and JMJD2A demethylase activity. […] Baculovirus expressed JMJD2C (GenBank Accession #BC143571, AA 2-372) was purchased from BPS Bioscience (Cat#50105).
The ability of test compounds to inhibit the activity of JMJD2C was determined in 384-well plate format under the following reaction conditions: 0.3 nM JMJD2C, 300 nM H3K9me3-biotin labeled peptide (Anaspec cat #64360), 2 μM alpha-ketoglutaric acid in assay buffer of 50 mM HEPES, pH7.3, 0.005% Brij35, 0.5 mM TCEP, 0.2 mg/ml BSA, 50 μM sodium L-ascorbate, and 2 μM ammonium iron(II) sulfate. Reaction product was determined quantitatively by TR-FRET after the addition of detection reagent Phycolink Streptavidin-allophycocyanin (Prozyme) and Europium-anti-di-methylated histone H3 lysine 9 (H3K9me2) antibody (PerkinElmer) in the presence of 5 mM EDTA in LANCE detection buffer (PerkinElmer) at a final concentration of 50 nM and 1 nM, respectively.
The assay reaction was initiated by the following: 2 μl of the mixture of 900 nM H3K9me3-biotin labeled peptide and 6 μM alpha-ketoglutaric acid with 2 μl of 11-point serial diluted inhibitor in 3% DMSO were added to each well of the plate, followed by the addition of 2 μl of 0.9 nM JMJD2C to initiate the reaction. The reaction mixture was incubated at room temperature for 30 minutes, and terminated by the addition of 6 μl of 5 mM EDTA in LANCE detection buffer containing 100 nM Phycolink Streptavidin-allophycocyanin and 2 nM Europium-anti-H3K9me2 antibody. Plates were read by EnVisionMultilabel Reader in TR-FRET mode (excitation at 320 nm, emission at 615 nm and 665 nm) after 1 hour incubation at room temperature. A ratio was calculated (665/615) for each well and fitted to determine inhibition constant (IC50).

Sequence of JMJD2A (O75164 1-350): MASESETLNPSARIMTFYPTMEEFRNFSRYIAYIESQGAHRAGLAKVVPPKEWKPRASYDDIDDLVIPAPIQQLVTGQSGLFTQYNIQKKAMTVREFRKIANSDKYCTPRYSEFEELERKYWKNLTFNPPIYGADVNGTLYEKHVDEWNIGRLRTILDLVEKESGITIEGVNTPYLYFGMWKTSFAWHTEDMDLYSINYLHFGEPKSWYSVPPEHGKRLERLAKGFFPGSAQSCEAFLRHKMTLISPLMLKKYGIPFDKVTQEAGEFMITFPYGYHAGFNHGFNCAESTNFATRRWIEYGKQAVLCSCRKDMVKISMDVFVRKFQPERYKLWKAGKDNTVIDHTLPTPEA
Sequence of Jarid1B (Q9UGL1 2-751): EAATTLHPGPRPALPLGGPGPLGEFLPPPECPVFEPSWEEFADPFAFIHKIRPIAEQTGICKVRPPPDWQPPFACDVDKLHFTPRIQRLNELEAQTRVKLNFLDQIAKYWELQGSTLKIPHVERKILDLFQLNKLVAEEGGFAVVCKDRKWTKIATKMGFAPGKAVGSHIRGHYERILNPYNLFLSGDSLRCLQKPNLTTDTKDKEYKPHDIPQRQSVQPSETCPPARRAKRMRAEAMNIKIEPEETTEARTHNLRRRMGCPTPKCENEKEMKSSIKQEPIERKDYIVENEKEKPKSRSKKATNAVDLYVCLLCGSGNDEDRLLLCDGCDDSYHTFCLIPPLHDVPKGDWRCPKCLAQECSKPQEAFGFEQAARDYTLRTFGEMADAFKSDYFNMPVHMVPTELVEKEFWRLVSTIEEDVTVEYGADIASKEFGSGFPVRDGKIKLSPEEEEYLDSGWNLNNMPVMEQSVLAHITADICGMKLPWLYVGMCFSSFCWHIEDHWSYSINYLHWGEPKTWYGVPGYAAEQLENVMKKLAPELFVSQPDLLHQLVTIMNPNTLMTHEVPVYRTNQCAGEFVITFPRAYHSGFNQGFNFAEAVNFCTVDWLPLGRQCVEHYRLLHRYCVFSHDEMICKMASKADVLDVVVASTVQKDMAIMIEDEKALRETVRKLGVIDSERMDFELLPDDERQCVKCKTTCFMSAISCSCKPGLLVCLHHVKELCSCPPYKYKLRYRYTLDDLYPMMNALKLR
Sequence of Jarid1A (P29375 1-1090): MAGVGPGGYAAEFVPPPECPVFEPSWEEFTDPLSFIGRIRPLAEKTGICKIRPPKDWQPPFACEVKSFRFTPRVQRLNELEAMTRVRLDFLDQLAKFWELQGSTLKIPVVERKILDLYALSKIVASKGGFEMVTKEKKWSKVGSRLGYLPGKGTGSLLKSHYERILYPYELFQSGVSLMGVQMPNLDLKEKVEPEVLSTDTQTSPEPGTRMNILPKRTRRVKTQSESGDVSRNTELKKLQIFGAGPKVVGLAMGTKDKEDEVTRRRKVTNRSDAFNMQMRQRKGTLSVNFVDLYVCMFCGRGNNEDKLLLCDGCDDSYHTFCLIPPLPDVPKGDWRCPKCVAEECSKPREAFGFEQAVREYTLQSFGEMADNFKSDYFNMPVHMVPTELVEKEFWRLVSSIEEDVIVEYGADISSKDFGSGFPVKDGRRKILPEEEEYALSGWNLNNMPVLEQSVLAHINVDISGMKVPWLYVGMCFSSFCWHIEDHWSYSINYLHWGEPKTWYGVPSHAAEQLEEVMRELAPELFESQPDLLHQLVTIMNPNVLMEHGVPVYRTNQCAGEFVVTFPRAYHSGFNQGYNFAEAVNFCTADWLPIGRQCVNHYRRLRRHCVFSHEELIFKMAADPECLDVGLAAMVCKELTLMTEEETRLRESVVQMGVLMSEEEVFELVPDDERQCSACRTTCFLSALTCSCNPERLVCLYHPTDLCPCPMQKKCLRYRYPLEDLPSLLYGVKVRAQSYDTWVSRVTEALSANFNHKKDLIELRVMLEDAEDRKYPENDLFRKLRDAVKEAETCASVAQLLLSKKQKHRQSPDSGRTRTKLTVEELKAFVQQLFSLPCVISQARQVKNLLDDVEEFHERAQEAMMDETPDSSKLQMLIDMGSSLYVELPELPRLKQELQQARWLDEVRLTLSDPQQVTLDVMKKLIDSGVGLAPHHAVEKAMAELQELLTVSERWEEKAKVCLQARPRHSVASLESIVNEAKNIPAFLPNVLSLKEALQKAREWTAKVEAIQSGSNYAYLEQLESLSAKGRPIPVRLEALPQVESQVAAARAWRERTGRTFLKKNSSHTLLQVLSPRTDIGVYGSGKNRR
Sequence of FBXL10 (Q8NHM5 1-650): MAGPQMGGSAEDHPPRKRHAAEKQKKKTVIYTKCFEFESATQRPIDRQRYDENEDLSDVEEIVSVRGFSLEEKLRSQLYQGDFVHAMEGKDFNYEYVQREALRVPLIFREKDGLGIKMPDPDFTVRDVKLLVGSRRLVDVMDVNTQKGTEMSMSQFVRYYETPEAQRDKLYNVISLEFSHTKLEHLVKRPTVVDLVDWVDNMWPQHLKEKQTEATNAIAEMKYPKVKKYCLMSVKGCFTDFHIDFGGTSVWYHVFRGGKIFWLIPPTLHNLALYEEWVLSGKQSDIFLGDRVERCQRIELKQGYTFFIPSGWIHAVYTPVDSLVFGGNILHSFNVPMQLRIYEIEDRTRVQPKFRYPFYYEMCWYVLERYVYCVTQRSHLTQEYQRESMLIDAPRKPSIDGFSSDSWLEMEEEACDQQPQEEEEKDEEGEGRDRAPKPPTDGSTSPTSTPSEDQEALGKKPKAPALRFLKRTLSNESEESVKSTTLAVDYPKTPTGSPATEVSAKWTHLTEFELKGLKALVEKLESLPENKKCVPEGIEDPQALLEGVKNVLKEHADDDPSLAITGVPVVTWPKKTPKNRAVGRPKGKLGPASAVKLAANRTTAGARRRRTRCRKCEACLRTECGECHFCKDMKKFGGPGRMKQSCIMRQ

Row | pIC50 [1] | pIC50 [2] | pIC50 [3] | pIC50 [4] | pIC50 [5] | pIC50 [6] | SMILES
1 | ≥ 7.00 | 6.00 to 7.00 | ≥ 7.00 | ≥ 7.00 | 5.00 to 6.00 | 6.00 to 7.00 | O=C(O)c1ccnc(-c2cn(Cc3ccc(F)cc3)cn2)c1 [Example 101, 2-[1-[(4-fluorophenyl)methyl]imidazol-4-yl]pyridine-4-carboxylic acid]
2 | ≥ 7.00 | – | ≥ 7.00 | ≥ 7.00 | 5.00 to 6.00 | 6.00 to 7.00 | CC(Cc1ccccc1)n1cnc(-c2cc(C(=O)O)ccn2)c1 (centres unmarked) [Example 106, 2-[1-(1-phenylpropan-2-yl)imidazol-4-yl]pyridine-4-carboxylic acid]
3 | ≥ 7.00 | ≥ 7.00 | ≥ 7.00 | ≥ 7.00 | < 5.00 | ≥ 7.00 | Cn1cnc(-c2cc(C(=O)O)ccn2)c1 [Example 1, 2-(1-methyl-1H-imidazol-4-yl)pyridine-4-carboxylic acid]
4 | – | – | – | – | 5.00 to 6.00 | – | COc1ccc(-c2c(-c3cc(C(=O)O)ccn3)ncn2C)cc1 [Example 12, 2-[5-(4-methoxyphenyl)-1-methyl-1H-imidazol-4-yl]pyridine-4-carboxylic acid]
5 | ≥ 7.00 | – | ≥ 7.00 | ≥ 7.00 | < 5.00 | 6.00 to 7.00 | CCCn1cnc(-c2cc(C(=O)O)ccn2)c1-c1ccc(Cl)c(F)c1 [Example 35, 2-[5-(4-chloro-3-fluorophenyl)-1-propyl-1H-imidazol-4-yl]pyridine-4-carboxylic acid]
6 | ≥ 7.00 | – | ≥ 7.00 | ≥ 7.00 | 5.00 to 6.00 | ≥ 7.00 | O=C(O)c1ccnc(-c2cn(CCc3ccc(F)cc3)cn2)c1 [Example 92, 2-[1-[2-(4-fluorophenyl)ethyl]imidazol-4-yl]pyridine-4-carboxylic acid]
7 | ≥ 7.00 | 6.00 to 7.00 | ≥ 7.00 | ≥ 7.00 | 5.00 to 6.00 | 6.00 to 7.00 | O=C(O)c1ccnc(-c2cn(Cc3ccccc3F)cn2)c1 [Example 102, 2-[1-[(2-fluorophenyl)methyl]imidazol-4-yl]pyridine-4-carboxylic acid]
8 | ≥ 7.00 | ≥ 7.00 | ≥ 7.00 | ≥ 7.00 | 5.00 to 6.00 | ≥ 7.00 | CC(c1ccccc1)n1cnc(-c2cc(C(=O)O)ccn2)c1 (centres unmarked) [Example 103]
9 | ≥ 7.00 | – | ≥ 7.00 | ≥ 7.00 | < 5.00 | 6.00 to 7.00 | Cn1cnc(-c2cc(C(=O)O)ccn2)c1-c1ccc(Cl)c(F)c1 [Example 29, 2-[5-(4-chloro-3-fluorophenyl)-1-methyl-1H-imidazol-4-yl]pyridine-4-carboxylic acid]
10 | ≥ 7.00 | 6.00 to 7.00 | ≥ 7.00 | ≥ 7.00 | < 5.00 | 6.00 to 7.00 | COc1ccccc1CCn1cnc(-c2cc(C(=O)O)ccn2)c1 [Example 95, 2-[1-[2-(2-methoxyphenyl)ethyl]imidazol-4-yl]pyridine-4-carboxylic acid]
11 | ≥ 7.00 | – | ≥ 7.00 | ≥ 7.00 | < 5.00 | 6.00 to 7.00 | Cn1cnc(-c2cc(C(=O)O)ccn2)c1-c1ccc2cc[nH]c2c1 [Example 22, 2-[5-(1H-indol-6-yl)-1-methyl-1H-imidazol-4-yl]pyridine-4-carboxylic acid]
12 | ≥ 7.00 | – | ≥ 7.00 | 6.00 to 7.00 | 5.00 to 6.00 | 6.00 to 7.00 | Cn1cnc(-c2cc(C(=O)O)ccn2)c1-c1ccc(OCC2CC2)cc1 [Example 16, 2-{5-[4-(cyclopropylmethoxy)phenyl]-1-methyl-1H-imidazol-4-yl}pyridine-4-carboxylic acid]
13 | ≥ 7.00 | – | ≥ 7.00 | ≥ 7.00 | < 5.00 | 6.00 to 7.00 | O=C(O)c1ccnc(-c2cn(Cc3cccc(F)c3)cn2)c1 [Example 104, 2-[1-[(3-fluorophenyl)methyl]imidazol-4-yl]pyridine-4-carboxylic]
14 | ≥ 7.00 | – | ≥ 7.00 | ≥ 7.00 | 5.00 to 6.00 | ≥ 7.00 | O=C(O)c1ccnc(-c2cn(CCNCC3CCC(F)(F)CC3)cn2)c1 [Example 72, 2-[1-[2-[(4,4-difluorocyclohexyl)methylamino]ethyl]imidazol-4-yl]pyridine-4-carboxylic acid]
15 | ≥ 7.00 | – | ≥ 7.00 | ≥ 7.00 | 5.00 to 6.00 | ≥ 7.00 | CCCn1cnc(-c2cc(C(=O)O)ccn2)c1 [Example 41, 2-(1-propyl-1H-imidazol-4-yl)pyridine-4-carboxylic acid]
16 | ≥ 7.00 | – | ≥ 7.00 | ≥ 7.00 | 5.00 to 6.00 | 6.00 to 7.00 | Cn1cnc(-c2cc(C(=O)O)ccn2)c1-c1ccc(Cl)cc1 [Example 19, 2-[5-(4-chlorophenyl)-1-methyl-1H-imidazol-4-yl]pyridine-4-carboxylic acid]
17 | ≥ 7.00 | – | ≥ 7.00 | 6.00 to 7.00 | < 5.00 | 5.00 to 6.00 | Cn1cnc(-c2cc(C(=O)O)ccn2)c1-c1ccc(C2CC2)cc1 [Example 7, 2-[5-(4-cyclopropylphenyl)-1-methyl-1H-imidazol-4-yl]pyridine-4-carboxylic acid]
18 | ≥ 7.00 | – | ≥ 7.00 | 6.00 to 7.00 | < 5.00 | 5.00 to 6.00 | Cc1ccc(-c2c(-c3cc(C(=O)O)ccn3)ncn2C)cc1O [Example 3, 2-[5-(3-hydroxy-4-methylphenyl)-1-methyl-1H-imidazol-4-yl]pyridine-4-carboxylic acid]
19 | ≥ 7.00 | – | ≥ 7.00 | ≥ 7.00 | < 5.00 | 6.00 to 7.00 | Cn1cnc(-c2cc(C(=O)O)ccn2)c1-c1cccc(Cl)c1 [Example 20, 2-[5-(3-chlorophenyl)-1-methyl-1H-imidazol-4-yl]pyridine-4-carboxylic acid]
20 | ≥ 7.00 | – | ≥ 7.00 | ≥ 7.00 | 5.00 to 6.00 | ≥ 7.00 | O=C(O)c1ccnc(-c2cn(CCc3ccccc3F)cn2)c1 [Example 93, 2-[1-[2-(2-fluorophenyl)ethyl]imidazol-4-yl]pyridine-4-carboxylic acid]
21 | ≥ 7.00 | – | ≥ 7.00 | – | 5.00 to 6.00 | ≥ 7.00 | CN(C)CCn1cnc(-c2cc(C(=O)O)ccn2)c1 [Example 40, 2-{1-[2-(dimethylamino)ethyl]-1H-imidazol-4-yl}pyridine-4-carboxylic acid]
22 | ≥ 7.00 | ≥ 7.00 | ≥ 7.00 | 5.00 to 6.00 | – | ≥ 7.00 | CN1CCC(Cn2cnc(-c3cc(C(=O)O)ccn3)c2)CC1 [Example 50, 2-{1-[(1-methylpiperidin-4-yl)methyl]-1H-imidazol-4-yl}pyridine-4-carboxylic acid]
23 | ≥ 7.00 | – | ≥ 7.00 | 6.00 to 7.00 | 5.00 to 6.00 | 6.00 to 7.00 | Cn1cnc(-c2cc(C(=O)O)ccn2)c1-c1ccc(-n2cccn2)cc1 [Example 15, 2-{1-methyl-5-[4-(1H-pyrazol-1-yl)phenyl]-1H-imidazol-4-yl}pyridine-4-carboxylic acid]
24 | ≥ 7.00 | 6.00 to 7.00 | ≥ 7.00 | ≥ 7.00 | – | 6.00 to 7.00 | O=C(O)c1ccnc(-c2cn(CCc3cccc4ccccc34)cn2)c1 [Example 112, 2-[1-(2-naphthalen-1-ylethyl)imidazol-4-yl]pyridine-4-carboxylic acid]
25 | ≥ 7.00 | 5.00 to 6.00 | ≥ 7.00 | ≥ 7.00 | – | 5.00 to 6.00 | O=C(O)c1ccnc(-c2cn(Cc3cccc(-c4ccccc4)c3)cn2)c1 [Example 111, 2-[1-[(3-phenylphenyl)methyl]imidazol-4-yl]pyridine-4-carboxylic acid]
26 | 6.00 to 7.00 | < 5.00 | 6.00 to 7.00 | ≥ 7.00 | – | 5.00 to 6.00 | Clc1ccccc1CCn1cnc(-c2cc(-c3nn[nH]n3)ccn2)c1 [Example 141, 2-[1-[2-(2-chlorophenyl)ethyl]imidazol-4-yl]-4-(2H-tetrazol-5-yl)pyridine]
27 | ≥ 7.00 | – | ≥ 7.00 | ≥ 7.00 | 5.00 to 6.00 | 6.00 to 7.00 | O=C(O)c1ccnc(-c2cn(Cc3ccccc3)cn2)c1 [Example 100, 2-(1-benzylimidazol-4-yl)pyridine-4-carboxylic acid]
28 | ≥ 7.00 | – | ≥ 7.00 | – | 5.00 to 6.00 | 6.00 to 7.00 | Cn1cnc(-c2cc(C(=O)O)ccn2)c1-c1ccc(N2CCCC2)cc1 [Example 18, 2-{1-methyl-5-[4-(pyrrolidin-1-yl)phenyl]-1H-imidazol-4-yl}pyridine-4-carboxylic acid]
29 | ≥ 7.00 | ≥ 7.00 | ≥ 7.00 | ≥ 7.00 | – | 6.00 to 7.00 | O=C(O)c1ccnc(-c2cn(CCN3CCCc4cc(F)ccc43)cn2)c1 [Example 90, 2-[1-[2-(6-fluoro-3,4-dihydro-2H-quinolin-1-yl)ethyl]imidazol-4-yl]pyridine-4-carboxylic acid]
30 | ≥ 7.00 | ≥ 7.00 | ≥ 7.00 | 6.00 to 7.00 | – | ≥ 7.00 | CN(C)CCOCCn1cnc(-c2cc(C(=O)O)ccn2)c1 [Example 48, 2-(1-{2-[2-(dimethylamino)ethoxy]ethyl}-1H-imidazol-4-yl)pyridine-4-carboxylic acid]

— US10273222B2 (CELGENE QUANTICEL RESEARCH, INC., priority 2013, dated 2019)
